According to patent US20080300281A1, “Inhibition of p38 Kinase Activity Using Aryl and Heteroaryl Substituted Heterocyclic Ureas” (priority 1997, published 2008):

`CC(C)(C)c1cc(NC(=O)Nc2cccc(Cl)c2Cl)c(-c2ccncc2)o1` [Entry 38, N-(2-(4-Pyridinyl)-5-tert-butyl-3-furyl)-N′-(2,3-dichlorophenyl)urea] gave a melting point of 195 to 198 °C.
